According to patent publication US20080242688A1, “Method 741” (ASTRAZENECA AB, priority 2007, published 2008):

What was measured:
[1] = Mass balance of [14C]-AZD0328 in rats; type: in vivo, rat
Protocol: In the mass balance study conducted in fed rats, a Tmax of 0.5 h to 1 h was observed following single and multiple oral doses (solution). The bioavailability of AZD0328 (total radioactivity) in this study was >90%. […] Generally speaking, the elimination was complete within the 24-hour interval at the dose levels tested.
Pharmacokinetics and mass balance of [^14C]-AZD0328 were investigated in rats. The excretion of [^14C]-AZD0328-derived radioactivity in rats was mainly through the kidney. Over the course of the study, radioactivity recovered in urine and feces accounted for approximately 85% and 8%, respectively.

Rat QWBA study = type: in vivo; details: single oral dose
Protocol: AZD0328 is a low protein binding molecule across species including human (<15%) across the concentration range 21.6 to […] (0.1 to 100 μM). In most species, the binding was concentration and gender independent. […] [14C]-AZD0328-derived radioactivity was rapidly distributed to the organs and tissues with high levels of radioactivity associated with the contents of the GI tract and the major excretion organs, including kidney and liver. The radioactivity declined rapidly and by 168 h postdose radioactivity levels were not detectable in most tissues, with the exception of a few ocular tissues and nasal turbinates. […] Notable association of [^14C]-AZD0328-related radioactivity with the melanin-containing tissues was observed, with measurable radioactivity still present in the ocular tissues at 216 h postdose. [14C]-AZD0328-derived radioactivity crossed the placenta.

[2] = Pharmacological activity of metabolite
Protocol: Pyridinyl methylation of AZD0328 was a unique polar metabolite (M2) observed in dog hepatocytes. Other minor hydroxylation/oxidation and glucuronide conjugation products were detected in monkey, dog, rat, and guinea pig hepatocyte incubations and mini-pig hepatic microsome incubations. […] Analysis of plasma and urine samples from either orally or iv dosed rats confirmed N-oxide product of AZD0328 was a main product in the excretion and circulation. The percentage of AZD0328 N-oxide in the plasma from male rats was much higher than from females.

c1cnc2c(c1)C[C@@]1(CN3CCC1CC3)O2 [[^14C]-AZD0328]
radioactivity recovered in feces [1]: ~8% | radioactivity recovered in urine [1]: approximately 85% | time of maximum blood and plasma concentrations of radioactivity (Rat QWBA study): 0.5 h

[O-][N+]12CCC(CC1)C1(Cc3cccnc3O1)C2 (stereo not shown) [quinuclidinyl-N-oxide of AZD0328]
pharmacological activity of metabolite [2]: pharmacological inactive
